This passage reports EC50 results from patent US12391675B2, “NLRP3 modulators” (INNATE TUMOR IMMUNITY, INC., priority 2019, dated 2025).

The target of assay [1] is T1, NLRP3 (Homo sapiens, UniProt Q96P20).
T1 construct: host or cells: PMA-differentiated THP-1 cells
In words: Measurement of IL-1β production in PMA-differentiated THP-1 cells (NLRP3 hIL1B EC50). It is filed as cell-based. Here is the method:
Measurement of IL-1β Production in PMA-Differentiated THP-1 Cells
THP-1 cells were purchased from the American Type Culture Collection and sub-cultured according to instructions from the supplier. Prior to experiments, cells were cultured in RPMI 1640 containing 10% heat inactivated FBS, penicillin (100 units/ml) and streptomycin (100 μg/ml), and maintained in log phase prior to experimental setup. Prior to the experiment THP-1 were treated with PMA (Phorbol 12-myristate 13-acetate) (10 μg/ml) for 24 hours. The day of the experiment the media was removed and attaching cells were treated with trypsin for 2 minutes, cells were then collected, washed with PBS (phosphate buffer saline), spin down, resuspended in 2% heat inactivated FBS with RPMI at a concentration of 1×10^6 cells/ml, and 100 μl was plated in a 96 well plate. Compounds were dissolved in dimethyl sulfoxide (DMSO) and added to the culture medium to achieve desired concentration (e.g. 100, 30, 10, 3, 1, 0.3 or 0.1 μM). Cells were incubated with compounds for 4 hours. Cell free supernatant was collected and the production of IL-1β was evaluated by ELISA. A vehicle only control was run concurrently with each experiment. Final DMSO concentration was 1%.
Measurement of IL-1β Production in PMA-Differentiated THP-1 Cells (Alternative Procedure)
THP-1 cells were purchased from the American Type Culture Collection and sub-cultured according to instructions from the supplier. Prior to experiments, cells were cultured in RPMI 1640 containing 10% heat inactivated FBS, penicillin (100 units/ml), streptomycin (100 μg/ml), HEPES (10 mM) and sodium pyruvate (1 mM) and maintained in log phase prior to experimental setup. Prior to the experiment, THP-1 cells were treated with PMA (Phorbol 12-myristate 13-acetate) (20 μg/ml) overnight. The day of the experiment, the media was removed and attached cells were treated with trypsin for 2 minutes, cells were then collected, washed with PBS (phosphate buffer saline), pelleted by centrifugation and resuspended in 2% heat inactivated FBS with RPMI at a concentration of 50,000 cells/well in a 384 well plate. Cell free supernatant was collected and the production of IL-1β was evaluated by ELISA. Compounds were dissolved in dimethyl sulfoxide (DMSO) and added to the culture medium to achieve desired concentration (e.g. 100, 30, 10, 3, 1, 0.3 or 0.1 μM). Cells were incubated with compounds for 2 hours. A vehicle only control was run concurrently with each experiment. Final DMSO concentration was 1%.
Measurement of IL-1β Production—hTRF Protocol (Second Alternative Procedure)
Serial dilutions of compounds in DMSO were added to low volume 384 well plates at 100 nl/well using an ECHO 550 acoustic dispenser (Labcyte) to achieve final starting concentration of 10 μM in assay.
THP-1 cells in RPMI (Gibco, 11875) media with 10% FBS at a density of 1×10^6 cell/ml in a T175 flask were treated with a final concentration of phorbol 12-myristate 13-acetate (PMA) (Sigma, P1585) of 50 ng/ml overnight at 37° C. at 5% CO2 for differentiation. Cells were harvested the next day after rinsing well wth dPBS using 0.5% trypsin. A cell solution was prepared of 1×10^6 cells/ml for 50,000 cells in 50 μl/well in RPMI media with 2% FBS. Cells were plated using a multichannel pipette onto the compound dilutions in Greiner, 384 well, black clear bottom tissue culture treated plates (781090). The plates were incubated in 37° C. incubator at 5% CO2 for 2 hours.
After the 2 hour incubation, the cell plates were spun in the centrifuge for 5 minutes at 1200 rpm. Using the Felix (CyBio), 8 μl of the supernatant was transferred to 384 well, low volume, white proxy plates. (Perkin Elmer, 6008230). A human IL1beta hTRF kit was used to analyze the supernatant (CISBIO, 62HIL1BPEG). The kit instructions were followed for preparing the IL1Beta standard curve and then the antibodies from the kit were diluted 1:40 rather than 1:20 as kit instructed. […]

Assay [2] addresses T2, human TLR7 (Homo sapiens, UniProt Q9NYK1).
T2 construct: host or cells: human HEK-Blue cells co-expressing TLR7 and an NF-kB/AP1-inducible SEAP reporter
T2 sequence (Q9NYK1 27-1049): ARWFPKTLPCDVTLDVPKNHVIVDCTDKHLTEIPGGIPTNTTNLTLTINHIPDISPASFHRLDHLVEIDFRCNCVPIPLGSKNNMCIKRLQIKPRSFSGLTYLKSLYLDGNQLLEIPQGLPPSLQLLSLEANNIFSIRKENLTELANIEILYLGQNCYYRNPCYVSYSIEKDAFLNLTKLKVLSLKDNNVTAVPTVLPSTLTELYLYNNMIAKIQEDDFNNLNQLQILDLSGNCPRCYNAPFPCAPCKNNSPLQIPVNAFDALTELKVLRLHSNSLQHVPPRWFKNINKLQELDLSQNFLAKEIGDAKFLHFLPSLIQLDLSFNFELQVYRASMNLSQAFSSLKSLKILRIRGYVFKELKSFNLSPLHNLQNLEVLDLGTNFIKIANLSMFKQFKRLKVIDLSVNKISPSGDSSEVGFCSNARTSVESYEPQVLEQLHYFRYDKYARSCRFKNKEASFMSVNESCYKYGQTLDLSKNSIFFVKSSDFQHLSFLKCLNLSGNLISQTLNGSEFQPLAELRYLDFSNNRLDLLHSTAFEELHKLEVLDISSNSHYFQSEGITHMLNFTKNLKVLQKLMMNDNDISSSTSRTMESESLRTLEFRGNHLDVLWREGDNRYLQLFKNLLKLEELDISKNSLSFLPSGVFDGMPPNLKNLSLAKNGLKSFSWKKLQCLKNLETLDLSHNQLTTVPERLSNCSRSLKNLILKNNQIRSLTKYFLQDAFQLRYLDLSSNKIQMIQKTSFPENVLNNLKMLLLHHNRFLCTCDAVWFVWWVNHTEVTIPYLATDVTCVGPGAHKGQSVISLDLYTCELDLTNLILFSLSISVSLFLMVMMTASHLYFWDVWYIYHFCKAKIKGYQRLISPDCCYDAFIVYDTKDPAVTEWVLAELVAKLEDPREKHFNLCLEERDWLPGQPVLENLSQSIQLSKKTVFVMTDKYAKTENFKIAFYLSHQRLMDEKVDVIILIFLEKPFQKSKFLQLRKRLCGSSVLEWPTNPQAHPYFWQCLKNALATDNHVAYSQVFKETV
In words: In vitro human TLR7 binding reporter assay (HEK-Blue cells, NF-kB/AP1-inducible SEAP reporter). It is filed as cell-based. The note with it: HEK-Blue cells expressing TLR7, SEAP reporter; read-out: TLR7 agonist EC50. Here is the method: In Vitro Human TLR7 and TLR8 Binding Reporter Assays
Logarithmically-growing human HEK-Blue cells co-expressing a TLR7 or TLR8 gene and a NF-kB/AP1-inducible SEAP (secreted embryonic alkaline phosphatase; Invivogen, San Diego, CA) reporter gene are added to individual wells of a 384-well plate (15,000 cells per 20 μL per well) and maintained for 24 h at 37° C., 5% CO2. Test compounds or DMSO are distributed to separate wells the next day using acoustic liquid handling technology (100 nL per well) and cells are subsequently incubated for 18 h at 37° C., 5% CO2. Cellular SEAP production is measured using an Envision plate reader instrument thirty minutes after adding freshly-made Quanti-Blue reagent (prepared by following manufacturer instructions; Invivogen, San Diego, CA) to the HEK-Blue TLR Nf-kB-SEAP cell reactions. All EC50 values (half-maximal effective concentration) are determined using proprietary data analysis software.
On the technique in general: A reporter such as luciferase makes a cellular process visible.

T1 sequence (Q96P20 whole entry): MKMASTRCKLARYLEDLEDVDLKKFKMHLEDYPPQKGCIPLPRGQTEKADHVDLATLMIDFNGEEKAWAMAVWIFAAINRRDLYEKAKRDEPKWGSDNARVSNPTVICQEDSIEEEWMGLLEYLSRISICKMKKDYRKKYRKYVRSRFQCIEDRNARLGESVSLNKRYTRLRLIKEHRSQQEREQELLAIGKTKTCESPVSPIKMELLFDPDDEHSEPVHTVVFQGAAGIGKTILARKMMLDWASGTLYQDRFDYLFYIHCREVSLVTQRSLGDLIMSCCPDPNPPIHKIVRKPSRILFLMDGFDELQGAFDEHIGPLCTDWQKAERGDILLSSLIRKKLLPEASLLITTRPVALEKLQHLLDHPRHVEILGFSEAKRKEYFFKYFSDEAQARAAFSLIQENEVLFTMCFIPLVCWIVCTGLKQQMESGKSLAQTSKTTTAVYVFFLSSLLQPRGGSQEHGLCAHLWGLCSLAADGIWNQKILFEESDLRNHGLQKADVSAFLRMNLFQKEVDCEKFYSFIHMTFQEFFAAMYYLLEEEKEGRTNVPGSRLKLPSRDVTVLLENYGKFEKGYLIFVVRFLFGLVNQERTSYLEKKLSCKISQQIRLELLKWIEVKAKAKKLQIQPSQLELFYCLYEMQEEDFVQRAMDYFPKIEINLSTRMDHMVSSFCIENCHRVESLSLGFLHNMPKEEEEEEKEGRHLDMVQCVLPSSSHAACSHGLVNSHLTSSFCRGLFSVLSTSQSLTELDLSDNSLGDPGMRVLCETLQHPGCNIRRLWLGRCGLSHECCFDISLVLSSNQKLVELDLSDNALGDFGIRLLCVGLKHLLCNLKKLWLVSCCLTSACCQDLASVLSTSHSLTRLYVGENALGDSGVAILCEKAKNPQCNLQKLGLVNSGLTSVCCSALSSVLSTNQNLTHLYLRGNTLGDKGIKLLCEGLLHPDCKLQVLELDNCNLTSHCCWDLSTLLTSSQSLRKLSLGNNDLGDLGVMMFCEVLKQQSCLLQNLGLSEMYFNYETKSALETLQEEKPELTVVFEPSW

As to `Nc1cc(NC23CC(CO)(C2)C3)c2ccc(-c3ccn[nH]3)cc2n1` [Example 16, (3-((2-amino-7-(1H-pyrazol-5-yl)quinolin-4-yl)amino)bicyclo[1.1.1]pentan-1-yl)methanol], the concentration for a half-maximal effect (EC50) (commonly the midpoint of the concentration-response curve) is 130 nM in assay [1] and less than 50000 nM in assay [2].

Regarding `C=CC12CCC(CNc3cc(N)nc4cc(-c5ccn[nH]5)ccc34)(CC1)CO2` [Example 25, 7-(1H-pyrazol-3-yl)-N4-((1-vinyl-2-oxabicyclo[2.2.2]octan-4-yl)methyl)quinoline-2,4-diamine], the EC50 in assay [1] is 2000 nM; in assay [2], less than 50000 nM.
